In this data set the test system is HuCCT1 cell xenograft. The experiment in a line: Xenograft of NIK shRNA-introduced HuCCT1 cells in NOG mouse. Format: in vivo. The following applies: HuCCT1 cells with shRNA introduced by lentivirus. As to the method: A histopathological slide was deparaffinized with xylene and ethanol. HE staining was performed with hematoxylin and eosin. In immunostaining, antigen activation was performed by heating in Target Retrieval Solution (Dako, USA), followed by blocking with bovine serum albumin and a reaction through use of a primary antibody at 4° C. overnight. A frozen section was dried at room temperature, and was blocked with BSA (Nacalai Tesque, Inc., Japan), followed by a reaction through use of a primary antibody in VECTASTAIN ABC Rabbit IgG Kit (Vector Laboratories, Inc., USA). DAB Substrate Kit (Vector Laboratories, Inc., USA) was used in a staining reaction. […] The number of Ki67-positive cells in a tumor was counted with ImageJ (Fiji). The immunostaining score of TRAF3 or NIK was calculated by multiplying a staining intensity (of from 0 to 3) by a stained area (%). Human ICC patients were grouped into two groups on the basis of the median immunostaining score of TRAF3 or NIK, and were evaluated for their disease-free survival (DFS) or overall survival (OS). […]
Further, the HuCCT1 cells were infected with negative control shRNA or NIK shRNA by using a lentivirus, and the infected cells were selected with puromycin. […] The measurement of the diameters of the tumors of the mice was started 3 weeks after the transplantation, and their tumor volumes were measured by the same method as that described above. […]

Consider “NIK shRNA: shRNA against NIK, SEQ ID NO: 1, introduced into HuCCT1 cells by a lentivirus (CCGGCUCAGGACUCACGUAGCAUUACUCGAGUAAUGCUACGUGAGUCCUGAGUUUUU)”, for which, where the note is “FIG. 24B”, the “number of Ki67-positive cells in tumors versus negative control shRNA-introduced tumors” value is recorded as “significantly lower”. Also, the “growth of xenografts derived from the HuCCT1 cells (tumor size)” value (measured from day 21 after transplantation, FIG. 24A) was “significantly suppressed”.

Source of the values: patent US20240285599A1, “Mature-Hepatocyte Transdifferentiation Suppressing Composition” (OSAKA UNIVERSITY, priority 2021, published 2024).
